Data reported in PMC10605077, “In Vitro and In Silico Antiviral Activity of Di-Halogenated Compounds Derived from L-Tyrosine against Human Immunodeficiency Virus 1 (HIV-1)” (Current Issues in Molecular Biology, 2023).

What was measured:
[1] = Viability assay of PBMC, flow cytometry with viability dye; format: cell-based, Human; conditions: human, PBMC stimulated with PHA and IL-2; all concentrations tested (18.75 μM up to 150 μM), 7 days; read-out: viability level on PBMCs
Experimental: PBMCs were thawed and let in the culture in RPMI with 10% fetal bovine serum (FBS) (Gibco, Grand Island, NY, USA) for 24 h before each experiment. Cells were stimulated for 48 h with 8 μg/mL of Phytohemagglutinin-PHA (Sigma-Aldrich, St. Louis, MO, USA) and 50 UI/mL of IL-2 (Peprotech, Rocky Hill, CT, USA). In the presence of various concentrations of di-halogenated compounds derived from L-Tyrosine, 2 × 10^5 cells per well were treated and resuspended in 200 µL of fresh medium with 20 UI/mL of IL-2 and incubated in 96-well culture plates for 7 days. After 7 days post-treatment, cell viability was determined using flow cytometry. Briefly, cells were stained with fixable viability dye eFluor 506 (eBioscience, Leicestershire, UK) as detailed in the manufacturer’s protocol for 30 min in the dark. Later, cells were washed and resuspended in PBS, and the percentage of viable cells was measured instead in the LS Fortessa cytometer (BD Biosciences, Franklin Lakes, NJ, USA). Data were analyzed using FlowJo version 10.5.3 (FlowJo, LLC, Ashland, OR, USA).

HIV-1 BaL [2] = test: Anti-HIV activity in PBMC, p24 ELISA of supernatant; format: cell-based; conditions: 150 μM, supernatant, 7 days
MTT cytotoxicity assay = format: cell-based; conditions: human; TZM-bl cells, MTT, 48 h
Experimental: The in vitro cytotoxic effect of the di-halogenated compounds on TZM-bl cells was determined with the MTT (3-(4,5-Dimethylthiazol-2-yl)-2,5-diphenyltetrazolium bromide) assay (Sigma-Aldrich, St. Louis, MO, USA). For this purpose, 1.2 × 10^5 cells/well were seeded in 96-well plates, which were incubated at 37 °C and 5% CO2 for 24 h. DMEM was used as a negative control and serial two-fold dilutions of the compounds were performed at 9.37 to 300 μM in DMEM supplemented with 5% FBS. A total of 100 μL/well of each dilution was added and incubated for 48 h. Subsequently, the cells were washed 2 times with 1X PBS, and 30 μL of MTT solution (2 mg/mL) was added and incubated for 2 h at 37 °C, in a light-protected culture. Then, 100 µL of DMSO was added to dissolve the formazan crystals, placed in shaking for 15 min, and absorbance reading was performed at 570 nm, using the Microplate Spectrophotometer (Thermo Scientific™ Multiskan™ GO, Waltham, MA, USA). Two independent experiments evaluated each experimental condition in quadruplicate (n = 8). The percentage of viability was calculated concerning the absorbance of the controls without a compound (100% viability). The 50% cytotoxic concentration was defined as the concentration of each compound that can reduce cell viability to 50% of the untreated cell control. CC50 was calculated and analyzed with GraphPad Prism version 8.0.1 (GraphPad Software, Inc., San Diego, CA, USA).

HIV-1 BaL [3] = test: Anti-HIV activity in PBMC, intracellular p24 by flow cytometry; format: cell-based; conditions: 7 days
Experimental: In the presence of various concentrations of the most bioactive compounds, 1×10^6 PBMCs previously stimulated with 8 μg/mL of PHA and 50UI/mL of IL-2 were treated for 1 h. […] After spinoculation, cells were washed twice with PBS 1x to remove free virions, and then, fresh medium supplemented with 20 UI/mL of IL-2, with or without the di-halogenated compounds derived from L-Tyrosine dilutions, was added. Cells were plated in 96-well culture plates and incubated for 7 days. […] In addition, antiviral activity was also assessed by measuring intracellular p24 in harvested cells. Briefly, cells were stained with fixable viability dye eFluor 506 (eBioscience, Leicestershire, UK), CD3 (UCHT1; Thermo Scientific, Wilmington, DE, USA), CD4 (RPA-T4; BD Biosciences, San Jose, CA, USA), and p24 PE (KC57; Beckman Coulter, Pasadena, CA, USA), as detailed in the manufacturer’s protocol. Later, cells were washed and resuspended in PBS, and the lecture was measured instead in the LS Fortessa cytometer (BD Biosciences, Franklin Lakes, NJ, USA). Data were analyzed using FlowJo version 10.5.3 (FlowJo, LLC, Ashland, OR, USA).

HIV-1IIIB (X4) = test: Anti-HIV activity in infected TZM-bl cells (luciferase), pre- and post-infection treatment; format: cell-based, Human Immunodeficiency Virus Type 1 (HIV-1); conditions: TZM-bl cells
Experimental: (§1) TZM-bl cells were plated in a flat-bottom 96-well plate (Corning Inc., Corning, New York, NY, USA) at the concentration of 1.2 × 10^5 cells/well and incubated for 24 h at 37 °C before the addition or not of each compound at non-cytotoxic concentrations (pre-infection treatment). Then, 1 h later the treatment was removed, and the infection was performed by adding 10 ng/mL of HIV-1IIIB p24 (X4) or 2 ng/mL of HIV-1 BaL (R5). After 3 h, the virus was removed and washed, and the compound dilutions were added again (post-infection treatment). Additionally, three wells were left for the negative control (cells without treatment or infection), the positive control of infection (cells infected with the virus without treatment), and the positive control of inhibition (AZT). Antiviral activity was quantified 48 h after treatment by measuring luciferase activity, which is directly proportional to the number of infectious virus particles in the sample [23]. The luciferase activity was quantified via luminescence emitted by the cells using Bright-GloTM Luciferase Assay System (Promega Corp., Madison, WI, USA), following the manufacturer’s instructions. Briefly, 100 μL of the reagent was added to 100 μL of TZM-bl cells and incubated for at least 2 min, protected from light. Relative light units (RLUs) were measured using the multi-mode plate reader (Thermo ScientificTM VarioskanTM LUX). Each experimental condition was performed in triplicate in two independent experiments (n = 6). The percentage inhibition was calculated as follows: 100 − (RLU of treated cells − RLU of uninfected cells/RLU of infection control − RLU of uninfected cells) × 100.

HIV-1 BaL (R5) = test: as above; format: cell-based, Human Immunodeficiency Virus Type 1 (HIV-1)
Experimental: as §1

## COc1c(Cl)cc(C[C@@H](C(=O)O)N(C)C)cc1Cl [TODC-2M]
[1]
  viability at 7 days: > 90%
HIV-1 BaL [2]
  inhibition of HIV-1 BaL in PBMC, extracellular p24 ELISA: 21.6%
HIV-1 BaL [2]; Human immunodeficiency virus 1, BAL, PBMC, 168 h, read-out: inhibition of HIV-1 BaL in PBMC, extracellular p24 ELISA
  inhibition at 150 µM: > 20%
MTT cytotoxicity assay
  CC50 at 48 h: > 300 µM
HIV-1 BaL [3]; Human immunodeficiency virus 1, BAL, PBMC, 168 h, 18.75 μM, read-out: inhibition of HIV-1 BaL replication in PBMC, flow cytometry (intracellular p24)
  inhibition at 18.75 µM: 50.6%
HIV-1 BaL [3]; Human immunodeficiency virus 1, BAL, PBMC, 168 h, 75 μM, read-out: inhibition of HIV-1 BaL replication in PBMC, flow cytometry (intracellular p24)
  inhibition at 75 µM: 69.6%
HIV-1 BaL [3]; Human immunodeficiency virus 1, BAL, PBMC, 168 h, 150 µM, read-out: inhibition of HIV-1 BaL replication in PBMC, flow cytometry (intracellular p24)
  inhibition at 150 µM: > 60%
HIV-1 BaL [3]; all concentrations
  inhibition of HIV-1 BaL replication in PBMC, flow cytometry (intracellular p24): over 50%
HIV-1IIIB (X4); Human immunodeficiency virus 1, TZM-bl, 18 µM, read-out: Percentage inhibition of HIV-1IIIB (X4 strain) replication
  inhibition at 18 µM: -18.5%
HIV-1IIIB (X4); Human immunodeficiency virus 1, TZM-bl, 37 µM, read-out: Percentage inhibition of HIV-1IIIB (X4 strain) replication
  inhibition at 37 µM: 40.6%
HIV-1IIIB (X4); Human immunodeficiency virus 1, TZM-bl, 75 µM, read-out: Percentage inhibition of HIV-1IIIB (X4 strain) replication
  inhibition at 75 µM: 62.8%
HIV-1IIIB (X4); Human immunodeficiency virus 1, TZM-bl, 150 µM, read-out: Percentage inhibition of HIV-1IIIB (X4 strain) replication
  inhibition at 150 µM: 99.6%
HIV-1IIIB (X4); Human immunodeficiency virus 1, HIV-1IIIB (X4), luciferase, 48 h
  IC50: ~39.1 µM
HIV-1 BaL (R5); Human immunodeficiency virus 1, BAL, TZM-bl, 48 h, HIV-1 BaL (R5), TZM-bl cells, luciferase
  IC50: 67.4 µM
HIV-1 BaL (R5); Human immunodeficiency virus 1, BAL, 18 µM, TZM-bl cells, read-out: Percentage inhibition of HIV-1 BaL replication
  inhibition at 18 µM: 38%
HIV-1 BaL (R5); Human immunodeficiency virus 1, BAL, 37 µM, TZM-bl cells, read-out: Percentage inhibition of HIV-1 BaL replication
  inhibition at 37 µM: 46.4%
HIV-1 BaL (R5); Human immunodeficiency virus 1, BAL, 75 µM, TZM-bl cells, read-out: Percentage inhibition of HIV-1 BaL replication
  inhibition at 75 µM: 60.5%
HIV-1 BaL (R5); Human immunodeficiency virus 1, BAL, 150 µM, TZM-bl cells, read-out: Percentage inhibition of HIV-1 BaL replication
  inhibition at 150 µM: 61.1%
HIV-1 BaL (R5); selectivity index against HIV-1 BaL (CC50 and IC50 of Table 3)
  SI: >4.45
